Laboratory results taken from ChEMBL document CHEMBL3297653, “2-Amino-7-substituted benzoxazole analogs as potent RSK2 inhibitors” (Bioorg Med Chem Lett, 2014).

Experiments:
MDA-MB-231 = assay: Cytotoxicity against human MDA-MB-231 cells assessed as growth inhibition after 5 days by CellTitre-glo assay; assay type: functional, cell-based; conditions: MDA-MB-231, 120 h
[1] = target: Tyrosine-protein kinase JAK2 (Homo sapiens, UniProt O60674); assay: Inhibition of JAK2 (unknown origin)
Aurora kinase A = target: T1, Aurora kinase A (Homo sapiens, UniProt O14965); assay: Inhibition of aurora A (unknown origin)
T1 sequence (O14965 whole entry): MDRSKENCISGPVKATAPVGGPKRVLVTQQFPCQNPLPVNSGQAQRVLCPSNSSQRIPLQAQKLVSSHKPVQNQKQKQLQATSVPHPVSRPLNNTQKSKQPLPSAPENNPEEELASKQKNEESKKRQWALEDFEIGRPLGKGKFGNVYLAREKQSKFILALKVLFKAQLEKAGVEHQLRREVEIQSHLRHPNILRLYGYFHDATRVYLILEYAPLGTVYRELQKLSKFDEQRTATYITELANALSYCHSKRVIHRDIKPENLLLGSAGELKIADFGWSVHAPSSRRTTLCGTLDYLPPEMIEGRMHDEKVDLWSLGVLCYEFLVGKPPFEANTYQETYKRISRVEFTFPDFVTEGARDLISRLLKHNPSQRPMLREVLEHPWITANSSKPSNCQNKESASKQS

Tyrosine-protein kinase JAK2, sequence (O60674 whole entry): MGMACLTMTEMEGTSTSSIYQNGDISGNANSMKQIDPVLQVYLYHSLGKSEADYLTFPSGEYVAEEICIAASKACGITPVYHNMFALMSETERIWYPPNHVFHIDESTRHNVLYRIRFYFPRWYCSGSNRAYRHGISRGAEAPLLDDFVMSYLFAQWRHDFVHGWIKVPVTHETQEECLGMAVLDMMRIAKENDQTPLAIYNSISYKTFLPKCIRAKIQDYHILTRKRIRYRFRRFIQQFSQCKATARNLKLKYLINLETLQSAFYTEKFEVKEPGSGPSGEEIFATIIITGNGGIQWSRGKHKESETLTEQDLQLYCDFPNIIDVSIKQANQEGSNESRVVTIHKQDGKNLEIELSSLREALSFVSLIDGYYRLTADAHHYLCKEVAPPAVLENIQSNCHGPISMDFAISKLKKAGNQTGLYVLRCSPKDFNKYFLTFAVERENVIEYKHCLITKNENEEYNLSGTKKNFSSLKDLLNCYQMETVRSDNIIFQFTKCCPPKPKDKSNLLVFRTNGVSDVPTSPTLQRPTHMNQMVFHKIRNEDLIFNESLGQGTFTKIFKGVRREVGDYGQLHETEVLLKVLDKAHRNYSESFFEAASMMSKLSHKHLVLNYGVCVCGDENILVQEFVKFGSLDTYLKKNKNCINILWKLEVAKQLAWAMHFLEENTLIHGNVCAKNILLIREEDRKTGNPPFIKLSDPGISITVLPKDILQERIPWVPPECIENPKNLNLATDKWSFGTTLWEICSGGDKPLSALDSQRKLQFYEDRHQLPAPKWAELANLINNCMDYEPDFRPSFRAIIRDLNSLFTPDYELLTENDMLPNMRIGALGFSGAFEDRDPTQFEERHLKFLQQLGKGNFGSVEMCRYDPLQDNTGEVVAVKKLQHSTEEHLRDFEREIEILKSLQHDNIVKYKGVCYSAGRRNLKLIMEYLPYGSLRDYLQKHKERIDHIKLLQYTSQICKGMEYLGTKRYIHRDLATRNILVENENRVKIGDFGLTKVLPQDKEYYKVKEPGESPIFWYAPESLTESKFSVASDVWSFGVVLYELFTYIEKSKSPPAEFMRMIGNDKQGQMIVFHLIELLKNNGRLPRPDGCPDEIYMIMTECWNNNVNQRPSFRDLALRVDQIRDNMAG

**Q.** For `COc1cc(Nc2nc3cccc(-c4cccc5[nH]cnc45)c3o2)cc(OC)c1OC`, which EC50 (MDA-MB-231) is on record?
**A.** 580 nM

**Q.** What about the IC50 [1] of the same compound?
**A.** 460 nM

**Q.** And the IC50 (Aurora kinase A)?
**A.** 600 nM
